In patent publication US20170184604A1, “DD1ALPHA RECEPTOR AND USES THEREOF IN IMMUNE DISORDERS” (THE GENERAL HOSPITAL CORPORATION, priority 2014, published 2017):

Legend:
human CD8+ T cells = assay: Human T cell activation assay (CFSE proliferation); assay type: cell-based; conditions: various concentrations with 3 μg/ml anti-CD3
Description: (FIG. 5A) DD1α inhibits the activation of human CD4+ T cells and CD8+ T cells. Enriched human CD4+ T cells and CD8+ T cells were stained with CFSE (1 μM) and stimulated with plate-bound anti-CD3 antibody (3 μg/ml) together with 2, 5, or 10 μg/ml of DD1α-Ig proteins or control Ig proteins. The proliferations of CD4+ T or CD8+ T cells were determined by the percentages of CFSE-labeled CD4+ T or CD8+ T cells at the 72-hour culture. The levels of cytokines IFN-γ and TNF-α in culture supernatant were analyzed by ELISA at the 48-hour culture. (FIG. 5B) DD1α-mediated inhibition of T cell activation is modulated by α-PD1 antibodies. […] The proliferation and cytokine production of CD4+ T cells were determined as FIG. 5A. […] The proliferations of CD4+ T cells were determined by percentage of CFSE-diluted CD4+ cells on day 3. The levels of cytokines IFN-γ and IL-2 in culture supernatant were analyzed by ELISA on day 2. (FIG. 5D) DD1α mediates Foxp3+ iTreg cell development. […]
The amount of Ig protein was kept constant at 10 μg/ml by the addition of control Ig protein. […] On day 3, cells were stained with anti-CD4-APC (OKT4, eBioscience for human CD4+ T cells; RM4-5, eBioscience for mouse CD4+ T cells) or anti-CD8-APC (SK1, eBioscience for human CD8+ T cells; 53-6.7, eBioscience for mouse CD8+ T cells) and then analyzed for CFSE dilution by flow cytometry.

DD1α = assay: Homophilic interaction assay (Ig protein-coated beads on transfected 293T cells); assay type: binding, human
Description: (FIG. 3A) Defective apoptotic cell engulfment of DD1α−/− m-BMDMs. Engulfments of Wt and DD1α−/− apoptotic thymocytes by Wt and DD1α−/− BMDMs were assessed by flow cytometry as described previously. The pHrodo-labeled apoptotic thymocytes were incubated with m-BMDMs for 30 min and the phagocytosis was determined by measuring the positive pHrodo-containing macrophages. Graph represents mean±SD from three independent experiments. (FIG. 3B) Homophilic DD1α interaction. […] The binding was examined under an inverted microscope (left panels) and also determined from the optical density (O.D.) at 492 nm (shown at the right). […] Binding was determined by counting the bound cells per 100 μm^2 and normalized by cell number bound to untreated plate. […] The bead bound His-DD1α (33-194) proteins were eluted and detected by immunoblotting using anti-His antibody. […] DD1α-transfected cells were treated or untreated with 1 mM bis(maleinido)hexane (BMH) for 1 hour, and DD1α protein was analyzed by western blotting under non-reducing condition. […] The phagocytosis of MCF7/DD1α KD cells expressing empty vector (EV), DD1α or DD1α-ΔIgV was determined as in FIG. 2A. […]

[1] = tested on: Jurkat cells expressing DD1α receptor; assay: Ig fusion protein binding to Jurkat cells; conditions: several concentrations; anti-Ig-APC detection
Description: Jurkat cells overexpressing DD1alpha (transfected with DD1alpha cDNA) or control Jurkat cells were assayed for binding to Ig-fused DD1α or PD-1 proteins. Cells were incubated with several different concentrations of DD1α-Ig (left panels) or PD1-Ig (right panels), and the bound Ig fusion proteins were detected by anti-Ig-APC. Binding amounts were determined by percentage of APC positive cells.

## DD1α-Ig: the extracellular region of DD1α fused with the immunoglobulin G Fc segment
Human CD8+ T cells
  CD8+ T cell proliferation stimulated by anti-CD3: strongly inhibited
DD1α; 293 cells transfected with mutant-DD1α (IgV domain-deletion)
  binding to IgV domain-deleted mutant DD1α on the cell surface: abolished this interaction
DD1α; 293 cells transfected with wt-DD1α
  binding to complete DD1α proteins expressed on the cell surface: bound
[1]
  binding to Jurkat cells expressing DD1α receptor: bind
